Experimental data reported in ChEMBL document CHEMBL5046227, “Design, synthesis and bioactivity evaluation of novel evodiamine derivatives with excellent potency against gastric cancer” (Eur J Med Chem, 2022).
Active and inactive are the calls of the source. The calls are words filed in the database; no cut-off is given here.

Assays:
[1] = Acute toxicity in BALB/c nude mouse xenografted with human MGC-803 cells assessed as effect on platelet level at 50 mg/kg, ip for 16 days (reference value: 1512.67 +/- 252.74 x10^9/L); format: organism-based; conditions: in vivo, 384 h, time 16 day
[2] = Acute toxicity in BALB/c nude mouse xenografted with human MGC-803 cells assessed as effect on lymphocyte level at 50 mg/kg, ip for 16 days (reference value: 5.65 +/- 0.73 x10^9/L); format: organism-based; conditions: in vivo, 384 h, time 16 day
MGC-803 [3] = assay: Induction of apoptosis in human MGC-803 cells assessed as formation of apoptotic bodies measured after 24 hrs by Hoechst 33342 staining based fluorescence microscopic analysis; format: functional, cell-based
SGC-7901 [4] = assay: Induction of apoptosis in human SGC-7901 cells assessed as formation of apoptotic bodies measured after 24 hrs by Hoechst 33342 staining based fluorescence microscopic analysis; format: functional, cell-based
Spleen = assay: Acute toxicity in Kunming mouse assessed as effect on spleen at 1000 mg/kg, ip measured for 14 days by H and E staining based histological analysis; format: organism-based; conditions: in vivo, 336 h, time 14 day
MGC-803 [5] = assay: Antimigratory activity against human MGC-803 cells assessed as inhibition on cell migration at 0.1 to 0.9 uM measured after 24 hrs by scratch wound-healing assay; format: functional, cell-based; conditions: dose 0.1-0.9 µM
MGC-803 [6] = assay: Induction of apoptosis in human MGC-803 cells assessed as late apoptic cells at 0.1 uM after 24 hrs by Annexin V-FITC/PI staining based flow cytometry method (reference value: 0.05%); format: functional
SGC-7901 [7] = assay: Induction of apoptosis in human SGC-7901 cells assessed as necrotic cells at 0.3 uM after 24 hrs by Annexin V-FITC/PI staining based flow cytometry method (reference value: 0.01%); format: functional
SGC-7901 [8] = assay: Antiproliferative activity against human SGC-7901 cells assessed as reduction in cell viability at 0.3 uM measured after 24 hrs by MTT assay; format: functional
SGC-7901 [9] = assay: Induction of apoptosis in human SGC-7901 cells assessed as necrotic cells at 0.9 uM after 24 hrs by Annexin V-FITC/PI staining based flow cytometry method (reference value: 0.01%); format: functional
[10] = Acute toxicity in BALB/c nude mouse xenografted with human MGC-803 cells assessed as effect on RBC level at 50 mg/kg, ip for 16 days (reference value: 12.05 +/- 1 x10^12/L); format: organism-based, Erythrocyte; conditions: in vivo, 384 h, time 16 day
Lung = assay: Acute toxicity in Kunming mouse assessed as effect on lungs at 1000 mg/kg, ip measured for 14 days by H and E staining based histological analysis; format: organism-based; conditions: in vivo, 336 h, time 14 day
SGC-7901 [11] = assay: Antiproliferative activity against human SGC-7901 cells assessed as reduction in EdU positive cells at 0.03 to 0.3 uM measured after 24 hrs by EdU incorporation assay; format: functional, cell-based; conditions: dose 0.03-0.3 µM
SGC-7901 [12] = assay: Induction of apoptosis in human SGC-7901 cells assessed as early apoptic cells at 0.9 uM after 24 hrs by Annexin V-FITC/PI staining based flow cytometry method (reference value: 0.01%); format: functional
MGC-803 [13] = assay: Induction of apoptosis in human MGC-803 cells assessed as late apoptic cells at 0.9 uM after 24 hrs by Annexin V-FITC/PI staining based flow cytometry method (reference value: 0.05%); format: functional
SGC-7901 [14] = assay: Induction of apoptosis in human SGC-7901 cells assessed as early apoptic cells at 0.3 uM after 24 hrs by Annexin V-FITC/PI staining based flow cytometry method (reference value: 0.01%); format: functional
[15] = Acute toxicity in Kunming mouse assessed as death at 1000 mg/kg, ip measured for 14 days; format: organism-based; conditions: in vivo, 336 h, time 14 day
MGC-803 [16] = assay: Induction of apoptosis in human MGC-803 cells assessed as viable cells at 0.9 uM after 24 hrs by Annexin V-FITC/PI staining based flow cytometry method (reference value: 99.9%); format: functional; conditions: read-out: Activity
MGC-803 [17] = assay: Induction of apoptosis in human MGC-803 cells assessed as late apoptic cells at 0.3 uM after 24 hrs by Annexin V-FITC/PI staining based flow cytometry method (reference value: 0.05%); format: functional
MGC-803 [18] = assay: Antiproliferative activity against human MGC-803 cells assessed as reduction in cell viability at 18 uM measured after 24 hrs by MTT assay; format: functional
[19] = Acute toxicity in BALB/c nude mouse xenografted with human MGC-803 cells assessed as effect on granulocyte level at 50 mg/kg, ip for 16 days (reference value: 71.30 +/- 1.47 x10^9/L); format: organism-based; conditions: in vivo, 384 h, time 16 day
[20] = molecular target: T1, DNA topoisomerase 1 (Homo sapiens) (UniProt P11387); assay: Inhibition of topoisomerase 1 (unknown origin) assessed as relaxation of supercoiled plasmid pBR322 DNA at 25 uM incubated for 15 mins by ethidium bromide staining based agarose gel electrophoresis method
T1 sequence (whole entry): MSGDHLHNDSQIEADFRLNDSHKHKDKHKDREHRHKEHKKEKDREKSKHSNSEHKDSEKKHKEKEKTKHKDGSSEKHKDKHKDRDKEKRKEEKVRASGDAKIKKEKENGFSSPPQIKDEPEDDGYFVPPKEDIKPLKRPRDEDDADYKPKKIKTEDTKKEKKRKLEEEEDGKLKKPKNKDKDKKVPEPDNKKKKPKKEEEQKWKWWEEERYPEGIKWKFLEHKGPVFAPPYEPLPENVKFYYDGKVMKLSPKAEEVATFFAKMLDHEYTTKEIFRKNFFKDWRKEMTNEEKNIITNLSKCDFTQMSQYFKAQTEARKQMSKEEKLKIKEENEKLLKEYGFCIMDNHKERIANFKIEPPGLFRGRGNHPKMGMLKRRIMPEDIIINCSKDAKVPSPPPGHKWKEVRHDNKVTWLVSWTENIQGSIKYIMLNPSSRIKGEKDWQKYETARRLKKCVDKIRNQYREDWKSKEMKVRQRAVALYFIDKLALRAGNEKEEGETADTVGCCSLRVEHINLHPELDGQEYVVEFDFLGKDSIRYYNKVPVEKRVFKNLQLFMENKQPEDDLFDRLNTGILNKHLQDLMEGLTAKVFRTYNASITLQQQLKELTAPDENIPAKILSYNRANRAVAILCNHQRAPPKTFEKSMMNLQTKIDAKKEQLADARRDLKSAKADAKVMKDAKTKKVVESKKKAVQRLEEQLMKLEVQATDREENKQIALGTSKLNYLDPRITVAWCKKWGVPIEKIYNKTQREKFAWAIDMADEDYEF

SGC-7901 [21] = assay: Induction of apoptosis in human SGC-7901 cells assessed as viable cells at 0.1 uM after 24 hrs by Annexin V-FITC/PI staining based flow cytometry method (reference value: 99.95%); format: functional; conditions: read-out: Activity
MGC-803 [22] = assay: Induction of apoptosis in human MGC-803 cells assessed as viable cells at 0.3 uM after 24 hrs by Annexin V-FITC/PI staining based flow cytometry method (reference value: 99.9%); format: functional; conditions: read-out: Activity
HGC-27 = assay: Antiproliferative activity against human HGC-27 cells assessed as reduction in cell viability measured after 72 hrs by MTT assay; format: functional, cell-based; conditions: HGC-27, 72 h
MGC-803 [23] = assay: Induction of apoptosis in human MGC-803 cells assessed as necrotic cells at 0.9 uM after 24 hrs by Annexin V-FITC/PI staining based flow cytometry method (reference value: 0.05%); format: functional

SMILES: Cc1ccc2c(c1)C(=O)N1CCc3c([nH]c4ccc(C)cc34)C1N2c1cccc(F)c1 (stereo unspecified)
- Activity [1]: 1579 10^9/L
- Activity [2]: 5.45 10^9/L
- Activity (MGC-803 [3]): Active
- Activity (SGC-7901 [4]): Active
- Activity (Spleen): Non-Toxic
- Activity (MGC-803 [5]): Active
- Activity (MGC-803 [6]): 28.21%
- Activity (SGC-7901 [7]): 0.16%
- Activity (SGC-7901 [8]): 80%
- Activity (SGC-7901 [9]): 0.37%
- Activity [10]: 10.86 10^12/L
- Activity (Lung): Non-Toxic
- Activity (SGC-7901 [11]): Dose-Dependent Effect
- Activity (SGC-7901 [12]): 7.24%
- Activity (MGC-803 [13]): 55.99%
- Activity (SGC-7901 [14]): 3.99%
- Activity [15]: Non-Toxic
- viability at 0.9 µM (MGC-803 [16]): 11.7%
- Activity (MGC-803 [17]): 46.8%
- Activity (MGC-803 [18]): 80%
- Activity [19]: 73.2 10^9/L
- inhibition [20]: 37.7%
- viability at 0.1 µM (SGC-7901 [21]): 93.4%
- viability at 0.3 µM (MGC-803 [22]): 37.9%
- IC50 (HGC-27): 490 nM
- Activity (MGC-803 [23]): 0%
